{"source": "patent US20260103474A1", "about": "“NOVEL COMPOUNDS FOR THE DIAGNOSIS OF TDP-43 PROTEINOPATHIES” (AC IMMUNE SA, priority 2022, published 2026)", "key": {"[1]": {"system": "Abeta and Tau aggregates in AD tissue", "experiment": "Classical autoradiography on Abeta- and Tau-rich AD brain tissue sections", "format": "binding, human", "details": "tritiated compound 10 nM; alone or in self-competition", "description": "All tissues were collected from donors for or from whom a written informed consent for a brain autopsy and the use of the material and clinical information for research purposes had been obtained by the respective brain banks. All samples were anonymized and coded. Frozen brain tissue blocks with confirmed Abeta and Tau pathology upon autopsy were processed using a cryotome to generate sections of 10 μm in thickness and mounted on glass slides. Sections were kept at −80° C. until use.\nBrain sections were fixed for 15 minutes at 4° C. with 4% formaldehyde on ice and washed three times for eight minutes with 1×PBS at RT. Sections were blocked in assay buffer for 30 minutes (50 mM Tris-HCl, 0.9% NaCl+0.1% BSA). Cold test compound (Compound 1) was diluted in assay buffer to 4 μM and applied on half of the sections for 40 minutes at RT to determine non-specific binding. The remaining half of the sections were only incubated with assay buffer (total binding). […]\nSections were subsequently dried under a stream of air and mounted with a copper-based adhesive strip. Bound radioactivity was quantified by exposing the slides in a real-time autoradiography system (Beaquant™ AI4R) for 2 hours with measurement settings configured for tritium. Beavacq software (AI4R) was used to acquire the image which was subsequently quantified using Beamage image analysis software (AI4R)."}, "Tau tangles": {"system": "Tau tangles", "experiment": "High resolution micro-autoradiography on AD brain sections", "format": "binding, human", "details": "tritiated compound 20 nM", "description": "The protocol was adapted from Marquie et al., 2015. AD sections were incubated with [^3H]-Compound 1, [^3H]-Compound 17 or [^3H]-Tau reference compound at 20 nM for one hour at room temperature (RT). Sections were then washed as follows: One time in ice-cold 50 mM Tris-HCl pH 7.4 buffer for one minute, two times in 70% ice-cold ethanol for one minute, one time in ice-cold 50 mM Tris-HCl pH 7.4 buffer for one minute and finally rinsed briefly in ice-cold distilled water. Sections were subsequently dried and then exposed to Ilford Nuclear Emulsion Type K5 (Agar Scientific, AGP9281) in a light-proof slide storage box. After five days, the sections were developed by immersing them successively in the following solutions: 1.) Ilford Phenisol Developer (1:5 dilution in H2O, Agar Scientific, AGP9106), 2.) Ilfostop solution (1:20 dilution in H2O, Agar Scientific, AGP9104), 3.) Ilford Hypam Fixer (1:5 dilution in H2O, Agar Scientific, AGP9183) and finally rinsed with H2O.\nThioflavin S staining was performed on adjacent sections. For image acquisition, sections were mounted using ProLong Gold Antifade reagent (Invitrogen P36930) and imaged on a Panoramic150 Slide Scanner (3DHistech) with a 20× objective capturing separately brightfield and fluorescent images."}, "[2]": {"biological_target": "T1, PD brain-derived a-synuclein aggregates (Homo sapiens, UniProt P37840)", "T1 construct": "from tissue; host or cells: frozen brain tissue of PD donors, 1% sarkosyl-insoluble pellet", "experiment": "Micro-radiobinding direct binding on PD brain-derived a-synuclein aggregates", "details": "tritiated compound 0.6 to 200 nM", "description": "The procedure was adapted from the protocol described in Spillantini et al., 1998. Frozen tissue blocks from PD donors were thawed on ice and homogenized using a glass dounce homogenizer. The homogenate was then centrifuged at 11,000×g (12,700 RPM) in an ultracentrifuge (Beckman, XL100K) for 20 minutes at 4° C. using a pre-cooled 70.1 rotor (Beckman, 342184). Pellets were resuspended in extraction buffer [10 mM Tris-HCl pH 7.4, 10% sucrose, […], 1% protease inhibitor (Calbiochem 539131), 1 mM EGTA, 1% phosphatase inhibitor (Sigma P5726 and P0044)] and centrifuged at 15,000×g (14,800 RPM, a 70.1 Ti rotor) for 20 minutes at 4° C. […]\nPD brain-derived a-synuclein aggregates and AD brain-derived Tau PHF aggregates were spotted onto microarray slides. […] Quantification of signal was performed by using the image analysis software Beamage (ai4R). Non-specific signal was determined with an excess of non-radiolabelled compound (2 μM) and specific binding was calculated by subtracting the non-specific signal from the total signal. Competition was calculated as percentage, where 0% was defined as the specific binding in the presence of vehicle and 100% as the values obtained in the presence of excess of the non-radiolabelled a-syn reference compound. Ki values were calculated in GraphPad Prism7 by applying a nonlinear regression curve fit using a one site, specific binding model. […]"}}}
{"smiles": "O=C1c2sc(-c3ccc(N4CCC(CO)CC4)nc3F)nc2CCN1c1cccnc1", "note": "[Compound 17, 2-(2-fluoro-6-(4-(hydroxymethyl)piperidin-1-yl)pyridin-3-yl)-5-(pyridin-3-yl)-6,7-dihydrothiazolo[5,4-c]pyridin-4(5H)-one]", "values": [{"measurement": "Classical autoradiography signal on AD tissue with abundant Abeta and Tau pathology", "setting": "[1]", "value": "no signal on the tissue"}]}
{"smiles": "[3H]c1cncc(N2CCc3nc(-c4cc([3H])c(N5CC[C@@H](F)C5)nc4F)sc3C2=O)c1", "note": "[[^3H]-Compound 1, tritiated 2-[2-fluoro-6-[(3R)-3-fluoropyrrolidin-1-yl]-3-pyridyl]-5-(3-pyridyl)-6,7-dihydrothiazolo[5,4-c]pyridin-4-one]", "values": [{"measurement": "Micro-autoradiography silver grain accumulation on Tau tangles in AD brain sections", "setting": "Tau tangles", "value": "No accumulation of silver grains on Tau tangles"}, {"measurement": "Direct binding in PD brain-derived a-synuclein aggregates", "setting": "[2]", "value": "No significant binding"}]}
{"smiles": "[3H]C([3H])(O)C1CCN(c2ccc(-c3nc4c(s3)C(=O)N(c3cccnc3)CC4)c(F)n2)CC1", "note": "[[^3H]-Compound 17, 2-(2-fluoro-6-(4-(hydroxymethyl-t2)piperidin-1-yl)pyridin-3-yl)-5-(pyridin-3-yl)-6,7-dihydrothiazolo[5,4-c]pyridin-4(5H)-one]", "values": [{"measurement": "Micro-autoradiography silver grain accumulation on Tau tangles in AD brain sections", "setting": "Tau tangles", "value": "No accumulation of silver grains on Tau tangles"}, {"measurement": "Direct binding in PD brain-derived a-synuclein aggregates", "setting": "[2]", "value": "No significant binding"}]}
{"smiles": "O=C1c2sc(-c3ccc(N4CC[C@@H](F)C4)nc3F)nc2CCN1c1cccnc1", "note": "[Compound 1, 2-[2-fluoro-6-[(3R)-3-fluoropyrrolidin-1-yl]-3-pyridyl]-5-(3-pyridyl)-6,7-dihydrothiazolo[5,4-c]pyridin-4-one]", "values": [{"measurement": "Classical autoradiography signal on AD tissue with abundant Abeta and Tau pathology", "setting": "[1]", "value": "no signal on the tissue"}]}
